In US5348949A, “Method of preparing N-oxo-tetrahydro-β-carbolines” (Duphar International Research B.V., priority 1989, dated 1994):
In brackets after ≈: the same amount, converted by molar mass. Entries after “also recorded” stand apart in the source; their conditions may differ. Read-outs that look alike come from different tables or passages of the source.

Legend:
Vaccinia virus = assay: microbe, parasite or virus in culture; type: cell-based; details: Orthopoxvirus vaccinia, read-out: MIC Vaccinia virus
[1] = cytotoxicity in Vero cell cultures; details: monkey, vero cells
[2] = test system: influenza virus A (Ishikawa); assay: microbe, parasite or virus in culture; type: cell-based; details: unidentified influenza virus, read-out: MIC influenza virus A (Ishikawa)
Semliki forest virus = assay: inhibition of virus induced cytopathogenicity, Vero cells, Semliki forest virus; type: cell-based
Description: (§1) Antiviral activity of some eudistomin derivatives was determined in a large number of in-vitro assays as described in reference 9. These tests are all based on the inhibition of virus induced cytopathogenicity. Depending upon the virus studied, different cell cultures were used. […] New compound 67 has the additional advantage of a 10-fold higher potency as compared with known compound 63.

Reovirus-1 = assay: inhibition of virus induced cytopathogenicity, Vero cells, Reovirus-1; type: cell-based
Description: as §1

parainfluenza-3 virus = assay: inhibition of virus induced cytopathogenicity, Vero cells, parainfluenza-3 virus; type: cell-based
Description: as §1

Coxsackie virus B4 = assay: inhibition of virus induced cytopathogenicity, Hela cells, Coxsackie virus B4; type: cell-based; details: Enterovirus B
Description: as §1

[3] = cytotoxicity in Hela cell cultures; details: human, hela cells
[4] = test system: influenza virus B (Singapore); assay: microbe, parasite or virus in culture; type: cell-based; details: unidentified influenza virus, read-out: MIC influenza virus B (Singapore)
Polio virus = assay: microbe, parasite or virus in culture; type: cell-based; details: read-out: MIC Polio virus
[5] = test system: Respiratory syncytial virus (Lung); assay: inhibition of virus induced cytopathogenicity, Hela cells, respiratory syncytial virus (Lung); type: cell-based; details: human respiratory syncytial virus
Description: as §1

[6] = cytotoxicity in primary rabbit kidney (PRK) cell cultures; details: primary rabbit kidney cells
[7] = test system: Herpes simplex virus-2 (Lyons); type: cell-based; details: Human alphaherpesvirus 2; PRK cells
Description: as §1

[8] = test system: Herpes simplex virus-1 (McInyre); type: cell-based; details: Human alphaherpesvirus 1; PRK cells
Description: as §1

[9] = test system: Herpes simplex virus-1 (KOS); type: cell-based; details: Human alphaherpesvirus 1; PRK cells
Description: as §1

[10] = test system: Herpes simplex virus-2 (196); type: cell-based; details: Human alphaherpesvirus 2; PRK cells
Description: as §1

[11] = test system: Herpes simplex virus-1 (F); type: cell-based; details: Human alphaherpesvirus 1; PRK cells
Description: as §1

[12] = test system: Herpes simplex virus-2 (G); type: cell-based; details: Human alphaherpesvirus 2; PRK cells
Description: as §1

Coxsasckie virus B4 = assay: inhibition of virus induced cytopathogenicity, Vero cells, Coxsackie virus B4; type: cell-based; details: Enterovirus B
Description: as §1

[13] = cytotoxicity in MDCK cell cultures; details: dog
Sindbis virus = assay: inhibition of virus induced cytopathogenicity, Vero cells, Sindbis virus; type: cell-based
Description: as §1

P 388 leukemia cells = assay: inhibition of P 388 leukemia cells colony formation (in vitro antitumour); type: cell-based; details: for IC50: Mus musculus, P388, read-out: ID50
Description: The antitumour activity of some eudistomin derivatives and the references antitumour drug was assessed in an invitro test with high predictive power for in-vivo activity. In this assay the inhibition of P 388 leukemia cells colony formation was determined at several concentrations of the test compounds as described in reference 8. The activity is expressed as an ID50 value, which indicates the dose causing 50% inhibition with respect to untreated control cells.

in vitro [14] = details: dog, mdck
in vitro [15] = details: human, hela cells
in vitro [16] = details: monkey, vero cells
in vitro [17] = details: rabbit, primary rabbit kidney cells
[18] = test system: Vesicular stomatitis virus; assay: microbe, parasite or virus in culture; type: cell-based; details: read-out: MIC Vesicular stomatitis virus
[19] = test system: Vesicular stomatitis virus; assay: microbe, parasite or virus in culture; type: cell-based; details: read-out: MIC Vesicular stomatitis virus; remark: listed apart in the source
22 antiviral test models = assay: 22 antiviral assays taken together (summary statements); type: cell-based
Description: as §1

SMILES	MIC (Vaccinia virus) [µg/mL]	MIC [2] [µg/mL]	MIC (Semliki forest virus) [µg/mL]	MIC (Reovirus-1) [µg/mL]	MIC (parainfluenza-3 virus) [µg/mL]	MIC (Coxsackie virus B4) [µg/mL]	MIC [4] [µg/mL]	MIC (Polio virus) [µg/mL]	MIC [5] [µg/mL]	MIC [7] [µg/mL]	MIC [8] [µg/mL]	MIC [9] [µg/mL]	MIC [10] [µg/mL]	MIC [11] [µg/mL]	MIC [12] [µg/mL]	MIC (Coxsasckie virus B4) [µg/mL]	MIC (Sindbis virus) [µg/mL]	MCC (in vitro [14]) [µg/mL]	MCC (in vitro [15]) [µg/mL]	MCC (in vitro [16]) [µg/mL]	other results
c1ccc2c3c([nH]c2c1)C1CCSCON1CC3 (racemic) [Compound 50, (±)-Deamino, debromo Eudistomin L]	> 70	> 40	> 25	> 10	> 10	> 10	> 40	> 10	> 8	> 70	> 70	> 70	> 70	> 70	> 120	> 25	> 10				MCC [1]: ≥ 40 µg/mL; MCC [3]: ≥ 30 µg/mL; MCC [6]: ≥ 120 µg/mL; MCC [13]: 80 µg/mL; ID50 (P 388 leukemia cells; dose causing 50% inhibition of colony formation vs untreated control cells): no activity at 1.0
NC(=O)c1ncn([C@@H]2O[C@H](CO)[C@@H](O)[C@H]2O)n1 [Ribavirin, ribavirin, reference compound]	30 (≈ 123 µM)	15 (≈ 61.4 µM)	> 300	125 (≈ 512 µM)	135 (≈ 553 µM)	70 (≈ 287 µM)	15 (≈ 61.4 µM)	110 (≈ 450 µM)	3 (≈ 12.3 µM)	> 200	> 200	> 200	> 200	> 200	> 200	> 300	> 235	> 200	≥ 400	> 400	MCC (in vitro [17]): ≥ 400 µg/mL
N[C@@H]1CSCON2CCc3c([nH]c4ccccc34)[C@H]12 [Compound 63, (1S.13bS)-debromo Eudistomin L]	0.25 (≈ 0.908 µM)	0.8 (≈ 2.91 µM)	0.45 (≈ 1.63 µM)	0.4 (≈ 1.45 µM)	> 0.6	0.55 (≈ 2 µM)	0.8 (≈ 2.91 µM)	0.7 (≈ 2.54 µM)	0.8 (≈ 2.91 µM)	0.38 (≈ 1.38 µM)	0.2 (≈ 0.726 µM)	1.35 (≈ 4.9 µM)	0.2 (≈ 0.726 µM)	0.25 (≈ 0.908 µM)	0.2 (≈ 0.726 µM)	0.55 (≈ 2 µM)	0.35 (≈ 1.27 µM)	8	≥ 4	≥ 4	MIC [18]: 0.2 µg/mL (≈ 0.726 µM); MIC [19]: 0.2 µg/mL (≈ 0.726 µM); spectrum of antiviral activity (22 antiviral test models): exceptionally wide range of activities; also recorded: very broad spectrum of antiviral activity; IC50 (P 388 leukemia cells): 42 µg/mL (≈ 153 µM); MCC (in vitro [17]): ≥ 25 µg/mL
COc1cccc2c1C(=O)c1c(O)c3c(c(O)c1C2=O)C[C@@](O)(C(=O)CO)C[C@@H]3O[C@H]1C[C@H](N)[C@H](O)[C@H](C)O1 [adriamycin, reference compound]																					IC50 (P 388 leukemia cells): 20 µg/mL (≈ 36.8 µM)
COc1ccc2[nH]c3c(c2c1)CCN1OCSCC(N)C31 [Compound 67, (1S,13bS)-5-methoxy Eudistomin L]	0.012 (≈ 0.0393 µM)	> 0.32	0.11 (≈ 0.36 µM)	0.045 (≈ 0.147 µM)	0.55 (≈ 1.8 µM)	0.045 (≈ 0.147 µM)	> 0.32	0.045 (≈ 0.147 µM)	0.15 (≈ 0.491 µM)	0.023 (≈ 0.0753 µM)	0.013 (≈ 0.0426 µM)	0.045 (≈ 0.147 µM)	0.014 (≈ 0.0458 µM)	0.039 (≈ 0.128 µM)	0.012 (≈ 0.0393 µM)	0.07 (≈ 0.229 µM)	0.045 (≈ 0.147 µM)	0.8	2	≥ 1	spectrum of antiviral activity (22 antiviral test models): exceptionally wide range of activities; also recorded: very broad spectrum of antiviral activity; IC50 (P 388 leukemia cells): 3.8 µg/mL (≈ 12.4 µM); MCC (in vitro [17]): ≥ 2.5 µg/mL
